Assay results as given in US12528818B2, “Compositions and methods for inhibition of RAS” (Leidos Biomedical Research, Inc., priority 2021, dated 2026).

These compounds were tested on pERK in NCI-H358 cells (assay: Cell-based pERK HTRF assay (pERK inhibition in H358 cells)). Details: Homo sapiens, NCI-H358, 0.5 h, pERK inhibition IC50, NCI-H358 cells, 30 min incubation; read-out: PERK in H358 cell.

SMILES	IC50 [nM]
C=CC(=O)N1CCN(c2nc(OCC34CCCN3CCC4)nc3c(F)c(-c4ccc(F)c5sc(N)nc45)c(C(F)(F)F)cc23)CC1 [Compound 80, 1-(4-(7-(2-amino-7-fluorobenzo[d]thiazol-4-yl)-8-fluoro-2-((tetrahydro-1H-pyrrolizin-7a(5H)-yl)methoxy)-6-(trifluoromethyl)quinazolin-4-yl)piperazin-1-yl)prop-2-en-1-one]	< 100
C=CC(=O)N1CC[C@@H](N(C)c2nc(OC[C@@H]3CC(C)(C)CN3C)nc3c(F)c(-c4ccc(F)c5sc(N)nc45)c(C(F)(F)F)cc23)C1 [Compound 265]	< 100
C=CC(=O)N1CCCC(Nc2nc(OC[C@@H]3CCCN3C)nc3c(F)c(-c4ccc(F)c5sc(N)nc45)c(Cl)cc23)C1 (stereo partly drawn) [Compound 54]	100 to 1000
C=CC(=O)N1CC[C@@H]2[C@H]1CN2c1nc(OC[C@@H]2CCCN2C)nc2c(F)c(-c3ccc(F)c4sc(N)nc34)c(Cl)cc12 [Compound 66]	< 100
CC#CC(=O)N1CCN(c2nc(OC[C@@H]3CCCN3CCF)nc3c(F)c(-c4ccc(F)c5sc(N)nc45)c(C(F)(F)F)cc23)CC1 [Compound 154]	100 to 1000
C=CC(=O)N1CC(N(C)c2nc(OCC34CCCN3CCC4)nc3c(F)c(-c4ccc(F)c5sc(N)nc45)c(Cl)cc23)C1 [Compound 84, 1-(3-((7-(2-amino-7-fluorobenzo[d]thiazol-4-yl)-6-chloro-8-fluoro-2-((tetrahydro-1H-pyrrolizin-7a(5H)-yl)methoxy)quinazolin-4-yl)(methyl)amino)azetidin-1-yl)prop-2-en-1-one]	100 to 1000
C=CC(=O)N1C[C@@H](F)[C@@H](N(C)c2nc(OC[C@@]34CCCN3C[C@H](F)C4)nc3c(F)c(-c4ccc(F)c5sc(N)nc45)c(C(F)(F)F)cc23)C1 [Compound 279]	< 100

Further lines, results first:

IC50 [nM]	SMILES
< 100	C=C(F)C(=O)N1CC[C@@H](N(C)c2nc(OC[C@@]34CCCN3C[C@H](F)C4)nc3c(F)c(-c4ccc(F)c5sc(N)nc45)c(C(F)(F)F)cc23)C1 [Compound 308]
< 100	C=CC(=O)N1CCN(c2nc(OC[C@@]34CCCN3C[C@H](F)C4)nc3c(F)c(-c4ccc(F)c5sc(N)c(C#N)c45)c(C(F)(F)F)cc23)C[C@@H]1C [Compound 329]
< 100	C=CC(=O)N1CCC(N(CC)c2nc(OC[C@@]34CCCN3C[C@H](F)C4)nc3c(F)c(-c4ccc(F)c5sc(N)c(C#N)c45)ccc23)[C@H]1C (stereo partly drawn) [Compound 421]
< 100	C=CC(=O)N1CCC(N(C)c2nc(OC[C@@H]3C[C@@H](OC)CN3C)nc3c(F)c(-c4ccc(F)c5sc(N)c(C#N)c45)c(C(F)(F)F)cc23)[C@H]1C (stereo partly drawn) [Compound 407]
< 100	C=CC(=O)N1C[C@H](C)N(c2nc(N3CC(N4CC(OC)C4)C3)nc3c(F)c(-c4ccc(F)c5sc(N)c(C#N)c45)c(C(F)(F)F)cc23)C[C@H]1C [Compound 331]
100 to 1000	C=CC(=O)N1CCC(N(C)c2nc(OC[C@@H]3CCCN3C)nc3c(F)c(-c4ccc(F)c5sc(N)c(C#N)c45)ccc23)[C@H]1COC (stereo partly drawn) [Compound 432]
100 to 1000	C=CC(=O)N1CCC(N(CC)c2nc(OC[C@@]34CCCN3C[C@H](F)C4)nc3c(F)c(-c4ccc(F)c5sc(N)c(C#N)c45)ccc23)[C@H]1COC (stereo partly drawn) [Compound 412]
< 100	C=CC(=O)N1CCC(N(C)c2nc(OC[C@@H]3CC4(CC4)CN3C)nc3c(F)c(-c4ccc(F)c5sc(N)c(C#N)c45)c(C(F)(F)F)cc23)[C@H]1COC (stereo partly drawn) [Compound 456]
< 100	C=CC(=O)N1CC[C@@H](N(C)c2nc(OC[C@@]34CCCN3C[C@H](F)C4)nc3cc(-c4ccc(F)c5sc(N)c(C#N)c45)c(F)cc23)[C@H]1COC [Compound 391]
< 100	C=CC(=O)N1CC[C@@H](N(C)c2nc(OC[C@@]34CCCN3C[C@H](F)C4)nc3c(F)c(-c4ccc(F)c5sc(N)c(C#N)c45)c(C(F)(F)F)cc23)[C@H]1CF [Compound 337]

Same assay, conditions: pERK inhibition IC50, NCI-H358 cells, 30 min incubation; read-out: PERK in H358 cell

IC50 [nM]	SMILES
> 1000	C=CC(=O)N1CC[C@@H](Nc2nc(OC[C@@]34CCCN3C[C@H](F)C4)nc3c(F)c(-c4ccc(F)c5sc(N)nc45)c(C(F)(F)F)cc23)C1 (single isomer, unassigned) [Compound 272]
